Assays:
Histone deacetylase 2 [1] = target: T1, Histone deacetylase 2 (Homo sapiens, UniProt Q92769); assay: Inhibition of human full length C-terminal His/FLAG-tagged HDAC2 expressed in baculovirus infected Sf9 cells preincubated for 3 hrs followed by fluorophore conjugated MAZ1600 substrate addition measured every 5 mins by fluorescence assay
Histone deacetylase 1 [2] = target: T2, Histone deacetylase 1 (Homo sapiens, UniProt Q13547); assay: Inhibition of recombinant full length human C-terminal FLAG/His-tagged HDAC1 expressed in baculovirus infected sf9 cells preincubated for 3 hrs followed by fluorophore conjugated MAZ1600 substrate addition measured every 5 mins by fluorescence assay
[3] = target: T3, Histone deacetylase 3/Nuclear receptor corepressor 2 (HDAC3/NCoR2) (Homo sapiens, UniProt O15379); assay: Inhibition of human full length C-terminal His-tagged HDAC3/N-terminal GST-tagged human NCOR2 (395 to 489 residues) co-expressed in baculovirus infected Sf9 insect cells preincubated for 3 hrs followed by fluorophore conjugated MAZ1600 substrate addition measured every 5 mins by fluorescence assay
Histone deacetylase 1 [4] = target: T2, Histone deacetylase 1; assay: Inhibition of human full length C-terminal His/FLAG-tagged HDAC1 expressed in baculovirus infected Sf9 insect cells after 1 hr in presence of acetylated lysine substrate by fluorescence assay
Histone deacetylase 2 [5] = target: T1, Histone deacetylase 2; assay: Inhibition of human full length C-terminal His-tagged HDAC2 expressed in baculovirus infected Sf9 insect cells after 1 hr in presence of acetylated lysine substrate by fluorescence assay
[6] = target: T3, Histone deacetylase 3/Nuclear receptor corepressor 2 (HDAC3/NCoR2); assay: Inhibition of human full length C-terminal His-tagged HDAC3/N-terminal GST-tagged human NCOR2 co-expressed in baculovirus infected Sf9 insect cells after 1 hr in presence of acetylated lysine substrate by fluorescence assay
Homo sapiens = species on record: Homo sapiens; assay: Selectivity ratio of IC50 for human full length C-terminal His/FLAG-tagged HDAC1 expressed in baculovirus infected Sf9 insect cells to IC50 for human full length C-terminal His-tagged HDAC2 expressed in baculovirus infected Sf9 insect cells

T3 sequence (O15379 whole entry, the tested form may be a part): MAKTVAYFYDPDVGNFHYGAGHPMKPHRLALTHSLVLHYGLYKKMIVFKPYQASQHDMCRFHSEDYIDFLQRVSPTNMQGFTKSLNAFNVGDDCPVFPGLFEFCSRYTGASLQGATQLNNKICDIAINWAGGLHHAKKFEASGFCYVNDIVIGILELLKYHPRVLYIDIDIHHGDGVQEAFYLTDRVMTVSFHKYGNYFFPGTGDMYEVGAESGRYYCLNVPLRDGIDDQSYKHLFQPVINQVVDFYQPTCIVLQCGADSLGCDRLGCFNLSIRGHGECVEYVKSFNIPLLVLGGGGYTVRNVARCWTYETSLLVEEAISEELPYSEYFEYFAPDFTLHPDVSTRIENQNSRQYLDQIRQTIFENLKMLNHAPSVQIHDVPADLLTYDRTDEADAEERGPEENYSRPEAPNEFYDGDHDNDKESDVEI
T3 sequence (Q9Y618 whole entry, further chain, the tested form may be a part): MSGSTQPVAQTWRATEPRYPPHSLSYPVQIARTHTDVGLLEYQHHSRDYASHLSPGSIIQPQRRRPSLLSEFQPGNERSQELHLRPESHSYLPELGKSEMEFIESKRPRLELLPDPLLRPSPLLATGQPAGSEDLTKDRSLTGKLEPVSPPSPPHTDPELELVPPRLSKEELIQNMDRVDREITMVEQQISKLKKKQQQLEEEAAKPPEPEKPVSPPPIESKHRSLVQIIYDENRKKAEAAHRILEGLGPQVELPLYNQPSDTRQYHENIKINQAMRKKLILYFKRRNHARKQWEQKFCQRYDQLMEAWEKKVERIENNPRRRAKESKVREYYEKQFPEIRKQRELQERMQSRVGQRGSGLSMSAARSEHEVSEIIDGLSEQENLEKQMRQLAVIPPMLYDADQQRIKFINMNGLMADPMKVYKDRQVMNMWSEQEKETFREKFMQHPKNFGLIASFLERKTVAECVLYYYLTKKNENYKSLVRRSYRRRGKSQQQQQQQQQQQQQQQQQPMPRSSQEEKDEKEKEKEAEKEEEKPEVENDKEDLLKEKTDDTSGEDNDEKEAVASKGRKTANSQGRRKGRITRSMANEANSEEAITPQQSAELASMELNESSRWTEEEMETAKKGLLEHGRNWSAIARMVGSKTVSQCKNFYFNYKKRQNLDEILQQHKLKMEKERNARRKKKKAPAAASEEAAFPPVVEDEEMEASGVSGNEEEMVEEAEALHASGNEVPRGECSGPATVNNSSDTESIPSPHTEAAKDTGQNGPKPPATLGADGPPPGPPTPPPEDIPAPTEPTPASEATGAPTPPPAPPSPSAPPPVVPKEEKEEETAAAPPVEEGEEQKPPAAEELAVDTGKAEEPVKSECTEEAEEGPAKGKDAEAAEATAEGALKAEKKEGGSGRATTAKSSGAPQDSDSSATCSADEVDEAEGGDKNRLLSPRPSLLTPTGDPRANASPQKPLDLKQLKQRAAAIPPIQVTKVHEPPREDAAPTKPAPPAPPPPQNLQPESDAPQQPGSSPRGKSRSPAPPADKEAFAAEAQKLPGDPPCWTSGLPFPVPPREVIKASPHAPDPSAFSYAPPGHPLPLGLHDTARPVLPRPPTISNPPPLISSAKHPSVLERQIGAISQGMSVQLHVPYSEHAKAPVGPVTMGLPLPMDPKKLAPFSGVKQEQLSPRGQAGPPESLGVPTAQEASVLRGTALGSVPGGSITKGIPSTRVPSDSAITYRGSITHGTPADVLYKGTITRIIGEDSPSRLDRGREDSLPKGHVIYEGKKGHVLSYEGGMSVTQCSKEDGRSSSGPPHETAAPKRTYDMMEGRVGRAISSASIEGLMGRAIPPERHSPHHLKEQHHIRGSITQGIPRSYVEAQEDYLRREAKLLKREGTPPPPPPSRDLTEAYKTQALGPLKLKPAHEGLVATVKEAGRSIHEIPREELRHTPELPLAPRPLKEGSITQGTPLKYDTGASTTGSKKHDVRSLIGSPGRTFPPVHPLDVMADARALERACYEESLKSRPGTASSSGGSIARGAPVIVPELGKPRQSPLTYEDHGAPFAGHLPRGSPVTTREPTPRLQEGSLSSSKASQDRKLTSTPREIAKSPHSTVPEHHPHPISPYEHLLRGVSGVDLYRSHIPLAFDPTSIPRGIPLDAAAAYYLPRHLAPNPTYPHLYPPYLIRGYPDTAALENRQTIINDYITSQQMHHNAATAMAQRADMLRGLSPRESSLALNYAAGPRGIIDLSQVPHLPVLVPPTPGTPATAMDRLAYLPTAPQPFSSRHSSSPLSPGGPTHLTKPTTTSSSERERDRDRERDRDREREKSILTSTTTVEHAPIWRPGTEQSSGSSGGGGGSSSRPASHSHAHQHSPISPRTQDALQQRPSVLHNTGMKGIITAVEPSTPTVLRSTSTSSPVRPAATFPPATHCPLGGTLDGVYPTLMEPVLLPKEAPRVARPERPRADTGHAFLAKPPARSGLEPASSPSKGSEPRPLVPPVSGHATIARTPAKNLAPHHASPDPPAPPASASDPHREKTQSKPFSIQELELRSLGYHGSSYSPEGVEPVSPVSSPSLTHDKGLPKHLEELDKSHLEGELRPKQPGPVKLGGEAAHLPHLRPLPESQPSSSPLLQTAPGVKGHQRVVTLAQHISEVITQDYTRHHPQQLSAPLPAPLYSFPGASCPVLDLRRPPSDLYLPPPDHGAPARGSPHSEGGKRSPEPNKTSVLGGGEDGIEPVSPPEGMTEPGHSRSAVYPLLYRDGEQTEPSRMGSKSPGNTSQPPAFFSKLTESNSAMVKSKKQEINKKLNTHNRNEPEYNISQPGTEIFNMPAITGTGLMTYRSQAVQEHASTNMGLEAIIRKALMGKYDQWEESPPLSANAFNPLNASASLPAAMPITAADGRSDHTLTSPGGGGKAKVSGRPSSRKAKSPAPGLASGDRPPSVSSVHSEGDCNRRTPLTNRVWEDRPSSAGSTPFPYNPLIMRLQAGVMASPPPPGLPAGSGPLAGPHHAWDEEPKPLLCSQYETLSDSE
T2 sequence (Q13547 whole entry, the tested form may be a part): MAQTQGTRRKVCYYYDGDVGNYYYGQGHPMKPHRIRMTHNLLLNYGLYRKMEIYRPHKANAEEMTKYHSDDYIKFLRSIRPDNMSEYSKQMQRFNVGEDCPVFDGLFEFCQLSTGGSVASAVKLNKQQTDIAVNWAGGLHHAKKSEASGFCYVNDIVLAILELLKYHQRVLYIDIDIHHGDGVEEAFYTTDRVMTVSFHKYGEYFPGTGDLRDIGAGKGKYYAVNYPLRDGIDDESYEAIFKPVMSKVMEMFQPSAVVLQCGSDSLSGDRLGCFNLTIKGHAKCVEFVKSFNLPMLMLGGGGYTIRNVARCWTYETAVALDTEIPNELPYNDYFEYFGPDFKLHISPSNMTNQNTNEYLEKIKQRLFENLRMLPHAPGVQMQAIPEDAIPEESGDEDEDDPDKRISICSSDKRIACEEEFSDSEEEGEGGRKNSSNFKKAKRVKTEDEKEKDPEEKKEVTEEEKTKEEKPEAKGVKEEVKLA
T1 sequence (Q92769 whole entry): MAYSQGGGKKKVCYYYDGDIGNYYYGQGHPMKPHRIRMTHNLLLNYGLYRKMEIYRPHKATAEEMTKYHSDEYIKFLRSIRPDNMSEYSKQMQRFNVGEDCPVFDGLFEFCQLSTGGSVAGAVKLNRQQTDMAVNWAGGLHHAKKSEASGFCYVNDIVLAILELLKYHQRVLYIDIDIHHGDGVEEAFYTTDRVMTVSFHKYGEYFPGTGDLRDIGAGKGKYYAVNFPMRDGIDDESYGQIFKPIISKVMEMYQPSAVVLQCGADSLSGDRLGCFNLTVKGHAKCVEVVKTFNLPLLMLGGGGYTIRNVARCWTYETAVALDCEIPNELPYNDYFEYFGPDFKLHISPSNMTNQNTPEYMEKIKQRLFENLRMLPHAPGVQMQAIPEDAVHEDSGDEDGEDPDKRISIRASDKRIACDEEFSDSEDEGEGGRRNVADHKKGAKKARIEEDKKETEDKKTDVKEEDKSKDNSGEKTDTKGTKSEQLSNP

**Q.** What does the source list for `C[C@H](CO)N1C[C@H](C)[C@H](CN(C)Cc2ccc(C(=O)Nc3ccccc3N)cc2)Oc2ccc(N(C)C)cc2CC1=O`?
**A.** IC50 (Histone deacetylase 2 [1]): 0.56 µM; IC50 (Histone deacetylase 1 [2]): 0.069 µM; IC50 [3]: 1.3 µM

**Q.** Which results are given for `O=C(/C=C(\CO)c1ccccc1)c1ccccc1`?
**A.** IC50 (Histone deacetylase 1 [4]): 2.74 µM; IC50 (Histone deacetylase 2 [5]): 0.17 µM; IC50 [6]: 50 µM; Ratio IC50 (Homo sapiens): 20

Reference: ChEMBL document CHEMBL4033774, “Class I HDAC Inhibitors: Potential New Epigenetic Therapeutics for Alcohol Use Disorder (AUD)” (J Med Chem, 2018)
